Experimental findings from BindingDB's records for patent US10882866 (Boehringer Ingelheim International GmbH, 2021) are described below.

The assay deals with T1, E3 ubiquitin-protein ligase Mdm2 [23-117] (Human, UniProt Q00987).
T1 construct: 23-117
The experiment in a line: Inhibition AlphaScreen Assay. The method, then: A mix consisting of 20 nM GST-MDM2 protein (aa 23-117) and 20 nM biotinylated p53 wt peptide (encompassing aa 16-27 of wt human p53, amino acid sequence QETFSDLWKLLP-Ttds-Lys-Biotin, molecular weight 2132.56 g/mol) is prepared in assay buffer (50 mM Tris/HCl pH 7.2; 120 mM NaCl; 0.1% bovine serum albumin (BSA); 5 mM dithiothreitol (DTT); 1 mM ethylenediaminetetraacetic acid (EDTA); 0.01% Tween 20). 30 μL of the mix is added to the compound dilutions and incubated for 15 min at rt while gently shaking the plate at 300 rounds per minute (rpm). Subsequently, 15 μL of premixed AlphaLISA Glutathione Acceptor Beads and AlphaScreen Streptavidin Donor Beads from PerkinElmer (in assay buffer at a concentration of 10 μg/mL each) are added and the samples are incubated for 30 min at rt in the dark (shaking 300 rpm). Afterwards, the signal is measured in a PerkinElmer Envision HTS Multilabel Reader using the AlphaScreen protocol from PerkinElmer.Each plate contains negative controls where biotinylated p53-peptide and GST-MDM2 are left out and replaced by assay buffer. Negative control values are entered as low basis value when using the software GraphPad Prism for calculations.

T1 sequence (Q00987 23-117): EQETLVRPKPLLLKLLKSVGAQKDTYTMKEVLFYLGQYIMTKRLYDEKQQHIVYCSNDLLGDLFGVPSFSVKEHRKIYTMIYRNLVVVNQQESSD

As for `O=C(O)c1ccc2c(c1)nc1n2CC[C@H]2[C@@H]1[C@H](c1cccc(Cl)c1F)[C@]1(C(=O)Nc3cc(Cl)ccc31)N2CC1CC1` [US10882866, Example Ib-171], the IC50 came out at 0.01 µM.

What is called IC50 is the concentration needed to halve the response being measured. Low readings indicate greater potency, high ones weaker potency.
